The values below come from patent US12692238B2, “Substituted pyridazinone herbicides” (FMC CORPORATION, priority 2020, dated 2026).

Read-outs that look alike come from different tables or passages of the source.

Holding throughout (format): in vivo
In test [1] the test system is kochia (Bassia scoparia). The test can be described thus: Test A postemergence, kochia. The following applies: Bassia scoparia, post-emergence, 240 h, 10 days, read-out: Plant response rating, Kochia; for pest or weed control at 31 g/ha: 31 g ai/ha, postemergence, 0 to 100 scale (0 no effect, 100 complete control); for pest or weed control at 125 g/ha: Postemergence, 125 g ai/ha, 0 to 100 scale. A digest of the protocol: (§1)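 Crop and weed plants grown in loam–sand mix were treated with compound in non-phytotoxic solvent plus surfactant, either as a preemergence soil spray after sowing or postemergence at one to two leaves. Injury ratings, 0 to 100 relative to untreated controls, were taken after 10 days.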

Another test deals with corn (Zea mays). The test can be described thus: Test A postemergence, corn. The following applies: Zea mays, post-emergence, 240 h, 10 days; for Corn plant response rating (crop injury, 0 = no effect, 100 = complete kill) at 31 g/ha: 31 g ai/ha; for Corn plant response rating (crop injury, 0 = no effect, 100 = complete kill) at 125 g/ha: 125 g ai/ha. A digest of the protocol:
as §1

Test [2] relates to ragweed (common ragweed, Ambrosia artemisiifolia). The test can be described thus: Test A preemergence, ragweed. The following applies: Ambrosia artemisiifolia, pre-emergence, 240 h, 0 to 100 scale, 10 days, read-out: Plant response rating, Ragweed; for pest or weed control at 31 g/ha: 31 g ai/ha; for pest or weed control at 125 g/ha: 125 g ai/ha. The essentials:
as §1

In test [3] the test system is galium (catchweed bedstraw, Galium aparine). The test can be described thus: Test A postemergence, galium. The settings on record: Galium, post-emergence, 240 h, 10 days, read-out: Plant response rating, Galium; for pest or weed control at 31 g/ha: 31 g ai/ha, postemergence, 0 to 100 scale (0 no effect, 100 complete control); for pest or weed control at 125 g/ha: Postemergence, 125 g ai/ha, 0 to 100 scale. A digest of the protocol: as §1

For test [4], the system named is foxtail, giant (giant foxtail, Setaria faberi). The test can be described thus: Test A postemergence, foxtail, giant. The settings on record: Setaria faberi, post-emergence, 240 h, 10 days, read-out: Plant response rating, Foxtail, Giant; for pest or weed control at 31 g/ha: 31 g ai/ha; for pest or weed control at 125 g/ha: 125 g ai/ha. A digest of the protocol: as §1

Test [5] deals with kochia (Bassia scoparia). The test can be described thus: Test A preemergence, kochia. The settings on record: Bassia scoparia, pre-emergence, 240 h, 0 to 100 scale, 10 days, read-out: Plant response rating, Kochia; for pest or weed control at 31 g/ha: 31 g ai/ha; for pest or weed control at 125 g/ha: 125 g ai/ha. A digest of the protocol:
as §1

For test [6], the system named is blackgrass (Alopecurus myosuroides). The test can be described thus: Test A postemergence, blackgrass. The settings on record: Alopecurus myosuroides, post-emergence, 240 h, 10 days, read-out: Plant response rating, Blackgrass; for pest or weed control at 31 g/ha: 31 g ai/ha; for pest or weed control at 125 g/ha: 125 g ai/ha. The essentials: as §1
Test [7] relates to ryegrass, Italian (Italian ryegrass, Lolium multiflorum). The test can be described thus: Test A preemergence, ryegrass, Italian. The settings on record: Lolium multiflorum, pre-emergence, 240 h, 0 to 100 scale, 10 days, read-out: Plant response rating, Ryegrass, Italian; for pest or weed control at 31 g/ha: 31 g ai/ha; for pest or weed control at 125 g/ha: 125 g ai/ha. A digest of the protocol:
as §1

The subject of test [8] is sedge, umbrella (small-flower umbrella sedge, Cyperus difformis). The test can be described thus: Test B flooded paddy test, sedge, umbrella. The settings on record: Cyperus difformis; 250 g ai/ha, Flood; visually evaluated after 10 to 14 days; read-out: Plant response rating, Sedge, Umbrella (0 to 100 scale where 0 is no effect and 100 is complete control). The essentials:
(§2)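 Application into floodwater (3 cm over soil) at the 2-leaf stage, with the depth held constant, followed by greenhouse growth for 10–14 days. Percent control was estimated visually versus controls, where 100 is complete control.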

The subject of test [9] is wheat (Triticum aestivum). The test can be described thus: Test A postemergence, wheat. The settings on record: Triticum aestivum, post-emergence, 240 h, 10 days, read-out: Plant response rating, Wheat; for plant injury at 31 g/ha: 31 g ai/ha, postemergence, 0 to 100 scale (0 no effect, 100 complete control); for plant injury at 125 g/ha: Postemergence, 125 g ai/ha, 0 to 100 scale. The essentials:
as §1

The subject of another test is rice (Oryza sativa). The test can be described thus: Test B flooded paddy test, rice. The following applies: Oryza sativa; 250 g ai/ha, Flood; visually evaluated after 10 to 14 days; read-out: Plant response rating, Rice (0 to 100 scale where 0 is no effect and 100 is complete control). A digest of the protocol: as §2
Test [10] relates to ragweed (common ragweed, Ambrosia artemisiifolia). The test can be described thus: Test A postemergence, ragweed. The settings on record: Ambrosia artemisiifolia, post-emergence, 240 h, 10 days, read-out: Plant response rating, Ragweed; for pest or weed control at 31 g/ha: 31 g ai/ha, postemergence, 0 to 100 scale (0 no effect, 100 complete control); for pest or weed control at 125 g/ha: Postemergence, 125 g ai/ha, 0 to 100 scale. A digest of the protocol:
as §1

Test [11] concerns barnyardgrass (Echinochloa crus-galli). The test can be described thus: Test B flooded paddy test, barnyardgrass. The following applies: Echinochloa crus-galli; 250 g ai/ha, Flood; visually evaluated after 10 to 14 days; read-out: Plant response rating, Barnyardgrass (0 to 100 scale where 0 is no effect and 100 is complete control). The essentials:
as §2

Where [12] appears, read: postemergence, 0 to 100 scale (0 no effect, 100 complete control).

Take `COC(=O)OCOc1c(Cl)nn(C)c(=O)c1-c1c2cc(C)ccc2cc2ccc(C)cc12` [Compound 8, [[3-chloro-5-(2,7-dimethyl-9-anthracenyl)-1,6-dihydro-1-methyl-6-oxo-4-pyridazinyl]oxy]methyl methyl carbonate]: the pest or weed control at 31 g/ha came out at 90% with kochia (Bassia scoparia) [1]; 40% in test [2]; 100% in [3]; 10% in test [4] (Postemergence, 0 to 100 scale); 60% with kochia (Bassia scoparia) [5]; 0% in test [6] (Postemergence, 0 to 100 scale). The pest or weed control at 31 g/ha worked out at 0% in test [7] and 100% in [10]. Further, the pest or weed control at 125 g/ha amounted to 100% in the test with kochia (Bassia scoparia) [1]; 100% in [2]; 100% in test [3]; 70% in test [4] (Postemergence, 0 to 100 scale); 100% in the test with kochia (Bassia scoparia) [5]; 0% in [6] (Postemergence, 0 to 100 scale). The values for the pest or weed control at 125 g/ha in [7] and in [10] were 10% and 100%, respectively. This compound also had a Corn plant response rating (crop injury, 0 = no effect, 100 = complete kill) at 31 g/ha in the test with corn (Zea mays) (Postemergence, 0 to 100 scale) of 0%. Moreover, the Corn plant response rating (crop injury, 0 = no effect, 100 = complete kill) at 125 g/ha in the test with corn (Zea mays) (Postemergence, 0 to 100 scale) amounted to 20%. Further, the pest or weed control at 250 g/ha in test [8] came to 95%; in test [11] it was 90%. Besides, the plant injury at 31 g/ha in [9] is 0%. In addition, the plant injury at 125 g/ha in test [9] was 0%. For the same compound, the plant injury at 250 g/ha in the test with rice (Oryza sativa) amounted to 0%.

Turning to `Cc1ccc2cc3ccc(C)cc3c(-c3c(OCOC(=O)C(C)(C)C)c(Cl)nn(C)c3=O)c2c1` [Compound 9, [[3-chloro-5-(2,7-dimethyl-9-anthracenyl)-1,6-dihydro-1-methyl-6-oxo-4-pyridazinyl]oxy]methyl 2,2-dimethylpropanoate], the pest or weed control at 31 g/ha with kochia (Bassia scoparia) [1] was found to be 70%; in [2] it was 0%; in test [3], 70%; in test [4] (Postemergence, 0 to 100 scale) it was 20%; in the test on kochia (Bassia scoparia) [5] it was 50%; in test [6] (Postemergence, 0 to 100 scale), 0%. The pest or weed control at 31 g/ha turned out to be 0% in test [7] and 80% in test [10]. The pest or weed control at 125 g/ha with kochia (Bassia scoparia) [1] came out at 90%; in test [2], 60%; in test [3], 100%; in test [4] (Postemergence, 0 to 100 scale) it was 40%; in the test on kochia (Bassia scoparia) [5], 100%; in test [6] (Postemergence, 0 to 100 scale), 0%. Besides, the values for the pest or weed control at 125 g/ha in test [7] and in [10] were 0% and 100%, respectively. The same compound had a Corn plant response rating (crop injury, 0 = no effect, 100 = complete kill) at 31 g/ha in the test on corn (Zea mays) (Postemergence, 0 to 100 scale) of 0%. This compound also returned a Corn plant response rating (crop injury, 0 = no effect, 100 = complete kill) at 125 g/ha in the test on corn (Zea mays) (Postemergence, 0 to 100 scale) of 20%. Also, the pest or weed control at 250 g/ha in test [8] was determined as 100%; in test [11] it was 98%. For the same compound, the plant injury at 31 g/ha in test [9] is 0%. For the same compound, the plant injury at 125 g/ha in [9] came to 0%. Further, the plant injury at 250 g/ha in the test with rice (Oryza sativa) turned out to be 0%.

For the compound `COC(=O)OCOc1c(C)nn(C)c(=O)c1-c1c2cc(C)ccc2cc2ccc(F)cc12` [Compound 15, [[5-(2-fluoro-7-methyl-9-anthracenyl)-1,6-dihydro-1,3-dimethyl-6-oxo-4-pyridazinyl]oxy]methyl methyl carbonate], the pest or weed control at 31 g/ha came to 100% in the test with kochia (Bassia scoparia) [1]; 100% in test [2]; 100% in test [3]; 100% in test [4] (setting [12]); 90% in the test on kochia (Bassia scoparia) [5]; 0% in test [6] (setting [12]). In addition, the values for the pest or weed control at 31 g/ha in test [7] and in [10] were 50% and 100%, respectively. Besides, the pest or weed control at 125 g/ha worked out at 100% in the test with kochia (Bassia scoparia) [1]; 100% in [2]; 100% in [3]; 100% in [4] (Postemergence, 0 to 100 scale); 100% in the test on kochia (Bassia scoparia) [5]; 10% in [6] (Postemergence, 0 to 100 scale). Moreover, the pest or weed control at 125 g/ha in test [7] and in test [10] was 100% in each case. In addition, the Corn plant response rating (crop injury, 0 = no effect, 100 = complete kill) at 31 g/ha in the test with corn (Zea mays) (setting [12]) was 0%. Also, the Corn plant response rating (crop injury, 0 = no effect, 100 = complete kill) at 125 g/ha in the test with corn (Zea mays) (Postemergence, 0 to 100 scale) worked out at 50%. Besides, the pest or weed control at 250 g/ha in test [8] amounted to 90%; in [11], 50%. Besides, in [9], the plant injury at 31 g/ha is 0%. Further, the plant injury at 125 g/ha in test [9] came out at 0%. Further, the plant injury at 250 g/ha with rice (Oryza sativa) came to 65%.
